Experimental data reported in PMC6941823, “A dispensable paralog of succinate dehydrogenase subunit C mediates standing resistance towards a subclass of SDHI fungicides in Zymoseptoria tritici” (PLoS Pathogens, 2019).
Read-outs that look alike come from different tables or passages of the source.

Assays:
[1] = biological target: WT-SQR (SDHC), IPO323 mitochondria (Zymoseptoria tritici, UniProt F9X9V6+F9XH52+O42772); assay: Succinate-quinone (SQR) SDHI sensitivity assay on purified mitochondria, IPO323; format: biochemical
Chain of WT-SQR (SDHC), IPO323 mitochondria (F9WWR1 entry or part of it): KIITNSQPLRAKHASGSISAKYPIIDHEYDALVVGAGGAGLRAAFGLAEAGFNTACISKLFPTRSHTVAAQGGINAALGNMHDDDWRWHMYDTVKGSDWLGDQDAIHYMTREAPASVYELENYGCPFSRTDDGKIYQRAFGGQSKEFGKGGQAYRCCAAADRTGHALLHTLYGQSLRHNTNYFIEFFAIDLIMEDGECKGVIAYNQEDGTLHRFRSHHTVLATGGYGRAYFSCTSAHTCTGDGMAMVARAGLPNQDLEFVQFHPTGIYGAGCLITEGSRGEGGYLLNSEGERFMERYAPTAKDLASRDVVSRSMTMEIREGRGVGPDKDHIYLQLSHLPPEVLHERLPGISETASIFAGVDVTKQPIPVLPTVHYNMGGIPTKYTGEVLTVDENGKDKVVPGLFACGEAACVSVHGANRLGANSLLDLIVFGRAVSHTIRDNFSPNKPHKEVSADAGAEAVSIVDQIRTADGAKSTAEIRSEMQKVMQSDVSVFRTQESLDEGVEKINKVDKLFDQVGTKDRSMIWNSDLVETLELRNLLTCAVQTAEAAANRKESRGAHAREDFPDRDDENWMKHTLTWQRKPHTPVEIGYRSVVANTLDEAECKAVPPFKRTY
Chain of WT-SQR (SDHC), IPO323 mitochondria (F9X9V6 entry or part of it): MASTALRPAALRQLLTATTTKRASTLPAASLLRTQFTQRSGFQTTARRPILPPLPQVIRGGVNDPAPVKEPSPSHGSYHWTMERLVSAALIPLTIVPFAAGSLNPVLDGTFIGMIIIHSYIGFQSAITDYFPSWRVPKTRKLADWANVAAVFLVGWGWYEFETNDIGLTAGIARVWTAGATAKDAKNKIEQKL
Chain of WT-SQR (SDHC), IPO323 mitochondria (O42772 19-297): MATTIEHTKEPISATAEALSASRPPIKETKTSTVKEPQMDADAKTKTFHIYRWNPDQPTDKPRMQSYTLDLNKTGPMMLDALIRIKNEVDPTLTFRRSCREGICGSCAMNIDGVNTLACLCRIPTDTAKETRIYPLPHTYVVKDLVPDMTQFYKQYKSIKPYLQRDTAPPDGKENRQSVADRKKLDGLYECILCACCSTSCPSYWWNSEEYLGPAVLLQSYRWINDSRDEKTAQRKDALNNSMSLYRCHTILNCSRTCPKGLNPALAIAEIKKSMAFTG
Chain of WT-SQR (SDHC), IPO323 mitochondria (F9XH52 entry or part of it): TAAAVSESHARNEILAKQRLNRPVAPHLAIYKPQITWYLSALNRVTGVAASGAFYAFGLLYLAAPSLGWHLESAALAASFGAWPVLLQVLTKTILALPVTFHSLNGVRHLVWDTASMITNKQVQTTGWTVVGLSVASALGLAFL
Procedure: (§1) Succinate-ubiquinone oxidoreductase (SQR) inhibition assays were performed on mitochondrial extracts from a panel of strains that were (i) either carrying a unique C-subunit encoding gene (ZtSDHC1, ZtSDHC1_A84I or Zt-SDHC3), or (ii) carrying two C-subunit encoding genes ZtSDHC1 and ZtSDHC3 (Table 1).
(§2) Biomass production, mitochondrial extraction and purification were performed as described in [14]. Succinate: ubiquinone/DCPIP sensitivity tests were performed as described in [14] with minor modification. The different mitochondrial suspensions were adjusted to similar initial velocity (1 OD595nm hour^-1) and inhibitor concentrations ranged between 0.047nM and 50μM with uniform 4x dilution steps (11 concentrations + DMSO control). Calculated absorbance slopes (OD/min) were used for IC50 calculations using GraphPad Prism 6.07 software non-linear curve fitting against log inhibitor concentrations.

[2] = biological target: SQR (SDHC) of D024 SDHC3 KO mitochondria (Zymoseptoria tritici, UniProt F9X9V6+F9XH52+O42772); assay: Succinate-quinone (SQR) SDHI sensitivity assay on purified mitochondria, 06STD024 SDHC3 KO; format: biochemical; details: for RF (resistance factor), D024 SDHC3 KO (SDHC): IC50 ratio compared to IPO323 values; for IC50: mitochondria of 06STD024 ZtSDHC3 deletion mutant, mean of three ± SD
Procedure: as §1, §2

[3] = tested on: SQR (SDHC / altC) of IPO323 pTet::SDHC3 transformant, induced; assay: Succinate-quinone (SQR) SDHI sensitivity assay on purified mitochondria, IPO323 pTet::SDHC3 induced; format: biochemical, Zymoseptoria tritici; details: IPO323 pTet::SDHC3 transformant grown in the absence of doxycycline; mean of three ± SD
Procedure: as §1
(§3) Biomass production, mitochondrial extraction and purification were performed as described in [14]. Succinate: ubiquinone/DCPIP sensitivity tests were performed as described in [14] with minor modification.

[4] = biological target: SQR (SDHC / altC) of IPO323 pTet::SDHC3 transformant, repressed (Zymoseptoria tritici, UniProt A0A1X7RQW2+F9X9V6+F9XH52+O42772); assay: Succinate-quinone (SQR) SDHI sensitivity assay on purified mitochondria, IPO323 pTet::SDHC3 repressed; format: biochemical; details: for RF (resistance factor), pTet Repressed (SDHC / altC): IC50 ratio compared to IPO323 values; for IC50: IPO323 pTet::SDHC3 transformant grown in presence of 30 mg.L^-1 doxycycline, mean of three ± SD
Procedure: as §1, §3

[5] = biological target: SQR of 06STD024 (SDHC / altC) mitochondria (Zymoseptoria tritici, UniProt A0A1X7RQW2+F9X9V6+F9XH52+O42772); assay: Succinate-quinone (SQR) SDHI sensitivity assay on purified mitochondria, 06STD024; format: biochemical; details: for RF (resistance factor), 06STD024 (SDHC / altC): IC50 ratio compared to IPO323 values; for IC50: mitochondria of field isolate 06STD024, mean of three ± SD
Chain of SQR of 06STD024 (SDHC / altC) mitochondria (A0A1X7RQW2 36-181): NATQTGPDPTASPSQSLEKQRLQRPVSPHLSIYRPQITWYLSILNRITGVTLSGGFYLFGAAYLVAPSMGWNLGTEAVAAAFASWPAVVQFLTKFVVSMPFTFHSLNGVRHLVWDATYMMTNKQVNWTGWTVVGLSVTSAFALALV
Chain of SQR of 06STD024 (SDHC / altC) mitochondria (O42772 19-297): as the sequence (O42772 19-297) above
Chain of SQR of 06STD024 (SDHC / altC) mitochondria (F9X9V6 1-193): as the sequence (F9X9V6 entry or part of it) above
Chain of SQR of 06STD024 (SDHC / altC) mitochondria (F9XH52 44-187): as the sequence (F9XH52 entry or part of it) above
Chain of SQR of 06STD024 (SDHC / altC) mitochondria (F9WWR1 29-643 partner): as the sequence (F9WWR1 entry or part of it) above
Procedure: as §1, §3

[6] = biological target: altC-SQR (altC) of D024 SDHC1 KO mitochondria (Zymoseptoria tritici, UniProt A0A1X7RQW2+F9X9V6+O42772); assay: Succinate-quinone (SQR) SDHI sensitivity assay on purified mitochondria, 06STD024 SDHC1 KO; format: biochemical; details: for RF (resistance factor), D024 SDHC1 KO (altC): IC50 ratio compared to IPO323 values; for IC50: mitochondria of 06STD024 ZtSDHC1 deletion mutant (pure altC-SQR), mean of three ± SD
Chain of altC-SQR (altC) of D024 SDHC1 KO mitochondria (A0A1X7RQW2 36-181): as the sequence (A0A1X7RQW2 36-181) above
Chain of altC-SQR (altC) of D024 SDHC1 KO mitochondria (O42772 20-297): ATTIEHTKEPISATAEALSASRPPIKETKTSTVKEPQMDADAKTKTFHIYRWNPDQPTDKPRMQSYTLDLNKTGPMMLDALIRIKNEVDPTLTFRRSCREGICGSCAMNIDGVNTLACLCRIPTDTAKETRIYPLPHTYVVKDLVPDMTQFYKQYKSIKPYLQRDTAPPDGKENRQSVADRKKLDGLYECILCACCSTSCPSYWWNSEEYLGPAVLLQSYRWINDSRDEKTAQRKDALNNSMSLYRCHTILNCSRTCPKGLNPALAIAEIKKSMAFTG
Chain of altC-SQR (altC) of D024 SDHC1 KO mitochondria (F9X9V6 1-193): as the sequence (F9X9V6 entry or part of it) above
Chain of altC-SQR (altC) of D024 SDHC1 KO mitochondria (F9WWR1 41-643 partner): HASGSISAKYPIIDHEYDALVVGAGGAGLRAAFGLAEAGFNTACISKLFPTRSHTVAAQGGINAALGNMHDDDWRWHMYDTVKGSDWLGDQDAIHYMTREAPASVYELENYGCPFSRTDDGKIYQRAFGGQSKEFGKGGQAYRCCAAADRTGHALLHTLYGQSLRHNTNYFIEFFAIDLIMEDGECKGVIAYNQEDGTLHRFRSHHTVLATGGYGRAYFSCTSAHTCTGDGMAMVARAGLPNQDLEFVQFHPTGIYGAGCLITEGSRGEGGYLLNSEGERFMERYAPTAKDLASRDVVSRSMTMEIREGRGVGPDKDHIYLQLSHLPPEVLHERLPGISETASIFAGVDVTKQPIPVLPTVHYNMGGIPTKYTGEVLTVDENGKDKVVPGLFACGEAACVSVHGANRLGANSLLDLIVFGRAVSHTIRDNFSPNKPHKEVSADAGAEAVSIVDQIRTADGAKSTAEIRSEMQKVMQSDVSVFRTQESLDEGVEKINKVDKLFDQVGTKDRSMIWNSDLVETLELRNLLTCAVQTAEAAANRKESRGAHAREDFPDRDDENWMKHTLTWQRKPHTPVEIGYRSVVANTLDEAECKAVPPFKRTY
Procedure: as §1, §3

[7] = tested on: Zymoseptoria tritici field and genetically modified strains; assay: Liquid culture assay for fungicide sensitivity determination; format: cell-based; details: Zymoseptoria tritici, liquid culture sensitivity
Procedure: Sensitivity towards commercial fungicides was determined for a set of 99 SHA-SDHI-naïve Z. tritici field isolates sampled in Europe between 2006 and 2009. The EC50 of these isolates was determined in liquid growth assays and the data obtained compared for each possible pair of SDHI fungicides (cross-resistance (XR) plots, Fig 1). […] Comparative succinate-quinone reductase (SQR) enzyme inhibition tests were performed with mitochondria extracted from a panel of SHA-SDHIs tolerant and sensitive isolates.
In order to characterize in more depth the mechanisms driving sensitivity differences across the isolates, a subset of eight isolates carrying the ZtSDHC3 gene was analyzed for their sensitivity to SDHIs, alt-SDHC expression and splicing patterns. Liquid culture growth sensitivity tests were performed to determine EC50s for this set of isolates towards a wide range of commercial and research SDHIs (S5 Table).
Pre-culture of the inoculum and fungicide sensitivity tests were performed following previously described procedures. Different ranges of inhibitor concentrations were used for population monitoring and for the detailed phenotyping of a selected set of individual field isolates and genetically modified strains. For fungicide sensitivity monitoring of European field populations, final inhibitors concentrations were between 100 mg.L^-1 and 0.0001 mg.L^-1 with uniform 10x dilution steps (7 inhibitor concentrations + DMSO control). For refined sensitivity analysis of a smaller panel of isolates final inhibitor concentrations ranged between 0.5 mM and 0.47 nM with uniform 4x dilution factor steps (11 inhibitor concentrations+ DMSO control).

[8] = tested on: Zymoseptoria tritici isolates; assay: Growth tests on solid agar at discriminatory fungicide concentrations; format: cell-based; details: for Growth phenotype on SDHI-amended plate: AE agar, isofetamid 5 mg.L^-1, 10 DPI (procedure of Fig 6)
Source text: Fig 6 Resistance to SHA-SDHIs in Z. tritici EU populations. […] Sensitivity data are sorted by genotype according to the presence of the ZtSDHC3 gene. ** p value of 0.0029 in Welch’s corrected unpaired t-test. (B) Solid agar growth of a collection of 93 Z. tritici isolates sampled in 2009 (same set as above). Individual strains from this collection are boxed and numbered 1 to 93. Boxes A and B correspond to reference resistant strains 06STD024 and 07STGB009 respectively. Box C corresponds to IPO323 reference sensitive isolate. The yellow framed boxes correspond to strains carrying the ZtSDHC3 gene. Yellow arrow designates strain 09STIR20.1 (number 78) carrying a non-functional alt-SDHC (frameshift, S6 Table).
A large scale spotting assay of 96 isolates (Fig 6) was performed using the V&P 96 floating pin tool VP408FP6 (V&P Scientific), equipped with flat tip FP6 pins of 1.58 mm diameter (resulting in approx. 0.4 μl transfer volume). Source cultures for cell spotting were grown in 100 μl YPD liquid medium in a 96 well flat bottom plate (Corning, 3370) at 18°C for 11 days (average cell density of 3.5·10^6/ml), then diluted 1:2x in fresh YPD medium and incubated for another 1.5 h before transfer with the pin tool (approx. 700 cells per spot) onto AE agar with or without fungicide. Plates were incubated at 20°C in the dark for up to 18 days. Smaller scale spotting assays (Figs 4 and 8) were performed using 5 days V8-agar plates inoculums adjusted to 2.10^6 spores.mL^-1 in water and diluted in steps of 3. 2μL of spore suspension was spotted on the plates, and the plates were incubated shielded from light at 21°C for 6 days.

[9] = read-out: EC50 (nM) Mean, strain 06STD024
[10] = read-out: EC50 (nM) Mean, strain 07STGB009
[11] = read-out: EC50 (nM) Mean, strain 09STD041
[12] = read-out: EC50 (nM) Mean, strain 09STD053
[13] = read-out: EC50 (nM) Mean, strain 09STF011
[14] = read-out: EC50 (nM) Mean, strain 09STF037
[15] = read-out: EC50 (nM) Mean, strain 09STF112
[16] = read-out: EC50 (nM) Mean, strain 09STIR20.3
[17] = read-out: EC50 (nM) Mean, strain Flu21 (SDHC1_A84I)
[18] = read-out: EC50 (nM) Mean, strain IPO323
[19] = read-out: EC50 (nM) Mean, strain IPO94269
[20] = read-out: EC50 (nM) Mean, strain KO_SDHC1_T1
[21] = read-out: EC50 (nM) Mean, strain KO_SDHC1_T3
[22] = read-out: EC50 (nM) Mean, strain KO_SDHC3_T4
[23] = read-out: EC50 (nM) Mean, strain KO_SDHC3_T13
[24] = read-out: EC50 (nM) Mean, strain pTet::SDHC3_I78A_T1
[25] = read-out: EC50 (nM) Mean, strain pTet::SDHC3_I78A_T5
[26] = read-out: EC50 (nM) Mean, strain pTet::SDHC3_I78A_T15
[27] = read-out: EC50 (nM) Mean, strain pTet::SDHC3_I78A_T35
[28] = read-out: EC50 (nM) Mean, strain pTet::SDHC3_T1
[29] = read-out: EC50 (nM) Mean, strain pTet::SDHC3_T2
[30] = read-out: EC50 (nM) Mean, strain pTet::SDHC3_T3
[31] = read-out: EC50 (nM) Mean, strain pTet::SDHC3_T7

SMILES	IC50 [1] [nM]	RF (resistance factor), D024 SDHC3 KO (SDHC) [2]	IC50 [2] [nM]	IC50 [3] [nM]	RF (resistance factor), pTet Repressed (SDHC / altC) [4]	IC50 [4] [nM]	RF (resistance factor), 06STD024 (SDHC / altC) [5]	IC50 [5] [nM]	RF (resistance factor), D024 SDHC1 KO (altC) [6]	IC50 [6] [nM]	EC50 [7, 9] [nM]	EC50 [7, 10] [nM]	EC50 [7, 11] [nM]	EC50 [7, 12] [nM]	EC50 [7, 13] [nM]	EC50 [7, 14] [nM]	EC50 [7, 15] [nM]	EC50 [7, 16] [nM]	EC50 [7, 17] [nM]	EC50 [7, 18] [nM]	further results
CC(C)CC(C)c1sccc1NC(=O)c1cn(C)nc1C(F)(F)F (stereo not shown) [Penthiopyrad]	1.4 ± 0.3	1.1	1.5 ± 0.3	1.8 ± 0.1	1.4	1.9 ± 0.4	1.4	2 ± 0.8	1.2	1.6 ± 0.7											
CC1=C(C(=O)Nc2ccccc2)SCCO1 [Carboxin]	969 ± 182	0.8	775 ± 94.5	762 ± 164	1.2	1200 ± 85	0.8	731 ± 84.4	0.9	865 ± 215	4620	6340	13200	9370	9620	6840	6780	13200	10200	8550	EC50 [7, 19]: 10800 nM; EC50 [7, 20]: 10400 nM; EC50 [7, 21]: 11200 nM; EC50 [7, 22]: 20600 nM; EC50 [7, 23]: 19600 nM; EC50 [7, 24]: 7520 nM; EC50 [7, 25]: 12700 nM; EC50 [7, 26]: 8080 nM; EC50 [7, 27]: 15700 nM; EC50 [7, 28]: 6980 nM; EC50 [7, 29]: 7420 nM; EC50 [7, 30]: 6930 nM; EC50 [7, 31]: 8460 nM
C[C@@H](Cc1ccc(Cl)cc1Cl)NC(=O)c1cn(C)nc1C(F)F [Compound 2]	5.3 ± 0.6	0.7	3.7 ± 0.5	204 ± 20.7		15.6 ± 3.9		415 ± 68		358 ± 63.4	2320	4000	702	367	606	178	786	259	5450	96.4	EC50 [7, 19]: 161 nM; EC50 [7, 20]: 10400 nM; EC50 [7, 21]: 8310 nM; EC50 [7, 22]: 299 nM; EC50 [7, 23]: 309 nM; EC50 [7, 24]: 168 nM; EC50 [7, 25]: 332 nM; EC50 [7, 26]: 150 nM; EC50 [7, 27]: 100 nM; EC50 [7, 28]: 6140 nM; EC50 [7, 29]: 5160 nM; EC50 [7, 30]: 5660 nM; EC50 [7, 31]: 7400 nM
CON(C(=O)c1cn(C)nc1C(F)F)[C@@H](C)Cc1ccc(Cl)cc1Cl [Compound 3]	0.7 ± 0.2	1.2	0.8 ± 0.13					26.4 ± 1.2		22.7 ± 0.8											
Cc1cc(OC(C)C)ccc1C(=O)C(C)(C)NC(=O)c1sccc1C [Isofetamid]	0.9 ± 0.1									> 50000											Growth on isofetamid-supplemented agar plate ([8]; isolate 09STIR20.1 (ZtSDHC3 frameshift), 10 DPI, 5 mg.L^-1): did not grow; Growth phenotype on SDHI-amended plate ([8]; strain 06STD024): Very strong; Growth phenotype on SDHI-amended plate ([8]; strain 07STGB009): Very strong; Growth phenotype on SDHI-amended plate ([8]; strain 09STD041): Strong; Growth phenotype on SDHI-amended plate ([8]; strain 09STD053): Strong; Growth phenotype on SDHI-amended plate ([8]; strain 09STF011): Strong; Growth phenotype on SDHI-amended plate ([8]; strain 09STF037): Weak; Growth phenotype on SDHI-amended plate ([8]; strain 09STF112): Strong; Growth phenotype on SDHI-amended plate ([8]; strain 09STIR20.3): Weak; Growth phenotype on SDHI-amended plate ([8]; strain IPO323): No; Growth phenotype on SDHI-amended plate ([8]; strain IPO94269): No
